Experiments:
Type in all cases: functional
[1] = test system: HCT-15; test: Growth inhibition of human HCT15 cells assessed as cell growth at 10 uM incubated for 48 hrs by sulforhodamine B assay relative to control; details: HCT-15, 48 h, read-out: Activity
[2] = test system: HL-60(TB); test: Growth inhibition of human HL-60(TB) cells assessed as cell growth at 10 uM incubated for 48 hrs by sulforhodamine B assay relative to control; details: HL-60, 48 h, read-out: Activity
[3] = test system: SNB-75; test: Growth inhibition of human SNB75 cells assessed as cell growth at 10 uM incubated for 48 hrs by sulforhodamine B assay relative to control; details: SNB-75, 48 h, read-out: Activity
[4] = test system: OVCAR-4; test: Growth inhibition of human OVCAR4 cells assessed as cell growth at 10 uM incubated for 48 hrs by sulforhodamine B assay relative to control; details: OVCAR-4, 48 h, read-out: Activity
[5] = test system: NCI-H226; test: Growth inhibition of human NCI-H226 cells assessed as cell growth at 10 uM incubated for 48 hrs by sulforhodamine B assay relative to control; details: NCI-H226, 48 h, read-out: Activity
[6] = test system: CCRF-CEM; test: Growth inhibition of human CCRF-CEM cells assessed as cell growth at 10 uM incubated for 48 hrs by sulforhodamine B assay relative to control; details: read-out: Activity
[7] = test system: PC-3; test: Growth inhibition of human PC3 cells assessed as cell growth at 10 uM incubated for 48 hrs by sulforhodamine B assay relative to control; details: PC-3, 48 h, read-out: Activity
[8] = test system: NCI-H23; test: Growth inhibition of human NCI-H23 cells assessed as cell growth at 10 uM incubated for 48 hrs by sulforhodamine B assay relative to control; details: NCI-H23, 48 h, read-out: Activity
[9] = test system: SF-295; test: Growth inhibition of human SF295 cells assessed as cell growth at 10 uM incubated for 48 hrs by sulforhodamine B assay relative to control; details: SF-295, 48 h, read-out: Activity
[10] = test system: OVCAR-8; test: Growth inhibition of human OVCAR8 cells assessed as cell growth at 10 uM incubated for 48 hrs by sulforhodamine B assay relative to control; details: OVCAR-8, 48 h, read-out: Activity
[11] = test system: U-251; test: Growth inhibition of human U251 cells assessed as cell growth at 10 uM incubated for 48 hrs by sulforhodamine B assay relative to control; details: U-251, 48 h, read-out: Activity
[12] = test system: MOLT-4; test: Growth inhibition of human MOLT4 cells assessed as cell growth at 10 uM incubated for 48 hrs by sulforhodamine B assay relative to control; details: MOLT-4, 48 h, read-out: Activity
[13] = test system: MDA-MB-435; test: Growth inhibition of human MDA-MB-435 cells assessed as cell growth at 10 uM incubated for 48 hrs by sulforhodamine B assay relative to control; details: MDA-MB-435, 48 h, read-out: Activity
[14] = test system: SK-MEL-28; test: Growth inhibition of human SK-MEL-28 cells assessed as cell growth at 10 uM incubated for 48 hrs by sulforhodamine B assay relative to control; details: SK-MEL-28, 48 h, read-out: Activity
[15] = test system: HCT-116; test: Growth inhibition of human HCT116 cells assessed as cell growth at 10 uM incubated for 48 hrs by sulforhodamine B assay relative to control; details: HCT-116, 48 h, read-out: Activity
[16] = test system: SN12C; test: Growth inhibition of human SN12C cells assessed as cell growth at 10 uM incubated for 48 hrs by sulforhodamine B assay relative to control; details: read-out: Activity
[17] = test system: KM12; test: Growth inhibition of human KM12 cells assessed as cell growth at 10 uM incubated for 48 hrs by sulforhodamine B assay relative to control; details: KM12, 48 h, read-out: Activity
[18] = test system: SF-268; test: Growth inhibition of human SF268 cells assessed as cell growth at 10 uM incubated for 48 hrs by sulforhodamine B assay relative to control; details: SF-268, 48 h, read-out: Activity
[19] = test system: 786-0; test: Growth inhibition of human 786-0 cells assessed as cell growth at 10 uM incubated for 48 hrs by sulforhodamine B assay relative to control; details: 786-0, 48 h, read-out: Activity
[20] = test system: K562; test: Growth inhibition of human K562 cells assessed as cell growth at 10 uM incubated for 48 hrs by sulforhodamine B assay relative to control; details: K562, 48 h, read-out: Activity
[21] = test system: M14; test: Growth inhibition of human M14 cells assessed as cell growth at 10 uM incubated for 48 hrs by sulforhodamine B assay relative to control; details: M14, 48 h, read-out: Activity
[22] = test system: Hs-578T; test: Growth inhibition of human Hs 578T cells assessed as cell growth at 10 uM incubated for 48 hrs by sulforhodamine B assay relative to control; details: read-out: Activity
[23] = test system: HOP-62; test: Growth inhibition of human HOP62 cells assessed as cell growth at 10 uM incubated for 48 hrs by sulforhodamine B assay relative to control; details: HOP-62, 48 h, read-out: Activity
[24] = test system: Malme-3M; test: Growth inhibition of human MALME-3M cells assessed as cell growth at 10 uM incubated for 48 hrs by sulforhodamine B assay relative to control; details: read-out: Activity
[25] = test system: DU-145; test: Growth inhibition of human DU145 cells assessed as cell growth at 10 uM incubated for 48 hrs by sulforhodamine B assay relative to control; details: DU-145, 48 h, read-out: Activity
[26] = test system: UACC-62; test: Growth inhibition of human UACC62 cells assessed as cell growth at 10 uM incubated for 48 hrs by sulforhodamine B assay relative to control; details: UACC-62, 48 h, read-out: Activity
[27] = test system: SF-539; test: Growth inhibition of human SF539 cells assessed as cell growth at 10 uM incubated for 48 hrs by sulforhodamine B assay relative to control; details: SF-539, 48 h, read-out: Activity
[28] = test system: UO-31; test: Growth inhibition of human UO31 cells assessed as cell growth at 10 uM incubated for 48 hrs by sulforhodamine B assay relative to control; details: UO-31, 48 h, read-out: Activity
[29] = test system: HT-29; test: Growth inhibition of human HT-29 cells assessed as cell growth at 10 uM incubated for 48 hrs by sulforhodamine B assay relative to control; details: HT-29, 48 h, read-out: Activity
[30] = test system: HOP-92; test: Growth inhibition of human HOP92 cells assessed as cell growth at 10 uM incubated for 48 hrs by sulforhodamine B assay relative to control; details: HOP-92, 48 h, read-out: Activity
[31] = test system: UACC-257; test: Growth inhibition of human UACC257 cells assessed as cell growth at 10 uM incubated for 48 hrs by sulforhodamine B assay relative to control; details: UACC-257, 48 h, read-out: Activity
[32] = test system: MDA-MB-468; test: Growth inhibition of human MDA-MB-468 cells assessed as cell growth at 10 uM incubated for 48 hrs by sulforhodamine B assay relative to control; details: MDA-MB-468, 48 h, read-out: Activity
[33] = test system: SR; test: Growth inhibition of human SR cells assessed as cell growth at 10 uM incubated for 48 hrs by sulforhodamine B assay relative to control; details: read-out: Activity

Compound	growth at 10 µM [1]	growth at 10 µM [2]	growth at 10 µM [3]	growth at 10 µM [4]	growth at 10 µM [5]	growth at 10 µM [6]	growth at 10 µM [7]	growth at 10 µM [8]	growth at 10 µM [9]	growth at 10 µM [10]	growth at 10 µM [11]	growth at 10 µM [12]	growth at 10 µM [13]	growth at 10 µM [14]	growth at 10 µM [15]	growth at 10 µM [16]	growth at 10 µM [17]	growth at 10 µM [18]	growth at 10 µM [19]	growth at 10 µM [20]	further results
COc1cc2cc(Oc3ccc(NC(=O)Nc4ccc(C(F)(F)F)cc4)cc3)c(C)nc2cc1OC	75.4%	75.2%	41%	49%	20.9%	68.5%	48.3%	79.3%	56%	37.8%	15%	61.9%	80.3%	58.4%	47.2%	72.2%	64.4%	79.3%	74.9%	57.1%	growth at 10 µM [21]: 95.2%; growth at 10 µM [22]: 70.9%; growth at 10 µM [23]: 18.8%; growth at 10 µM [24]: 82.9%; growth at 10 µM [25]: 71.4%; growth at 10 µM [26]: 69.2%; growth at 10 µM [27]: 96.9%; growth at 10 µM [28]: 87.6%; growth at 10 µM [29]: 44.6%; growth at 10 µM [30]: 56.3%; growth at 10 µM [31]: 66.5%; growth at 10 µM [32]: 40.1%; growth at 10 µM [33]: 59.6%
COc1cc2cc(Oc3ccc(NC(=O)Nc4ccc(Cl)c(Cl)c4)cc3)c(C)nc2cc1OC	18.9%	9.64%	22.4%	31.9%	7.74%	13.3%	4.12%	8.26%	0.69%	15%	-32.3%	3.69%	12.3%	44.6%	10.5%	22.1%	13.9%	43.7%	20.3%	12.7%	growth at 10 µM [21]: 25.8%; growth at 10 µM [22]: 45.1%; growth at 10 µM [23]: 55.2%; growth at 10 µM [24]: 14.9%; growth at 10 µM [25]: 24.8%; growth at 10 µM [26]: 20.4%; growth at 10 µM [27]: 38.5%; growth at 10 µM [28]: 3.69%; growth at 10 µM [29]: 10.9%; growth at 10 µM [30]: -9.31%; growth at 10 µM [31]: 1.38%; growth at 10 µM [32]: -16.7%; growth at 10 µM [33]: 18%
COc1cc2cc(Oc3ccc(NC(=O)Nc4cccc(C(F)(F)F)c4)cc3)c(C)nc2cc1OC	15.2%	-24.8%	13.1%	31.7%	-23.5%	6.41%	0.08%	6.78%	-15.1%	8.32%	-85.7%	0.81%	7.23%	26.7%	6.71%	17.2%	-10.2%	29.2%	15.1%	11.5%	growth at 10 µM [21]: 22.6%; growth at 10 µM [22]: 22.6%; growth at 10 µM [23]: 25%; growth at 10 µM [24]: 7.22%; growth at 10 µM [25]: 26.7%; growth at 10 µM [26]: 14.5%; growth at 10 µM [27]: 11.7%; growth at 10 µM [28]: 11.3%; growth at 10 µM [29]: 6.56%; growth at 10 µM [30]: -29.5%; growth at 10 µM [31]: -14.5%; growth at 10 µM [32]: -32.5%; growth at 10 µM [33]: -6.62%
